Tested on: peripheral blood mononuclear cell (PBMC) cultures
Assay: Cytokine expression in PBMC cultures challenged with mold cells or PHA (multiplex immunoassay)
Assay type: cell-based, human
Details: PBMC from healthy volunteers, 18 hours
Excerpt: PBMC were isolated from blood collected from patients and control subjects as previously described [Gillis B, Gavin I M, Arbieva Z, King S T, Jayaraman S, Prabhakar B S. Identification of human cell responses to benzene and benzene metabolites. Genomics 2007; 90: 324-333 and Gavin I M, Gillis B, Arbieva Z, Prabhakar B S. Identification of human cell responses to hexavalent chromium. Environ Mol Mutagen 2007; 48: 650-657.] and incorporated herein by reference. One milliliter of blood plasma was also collected from the blood samples and stored frozen at −80° C. […]
After overnight culture of the PMBC, one milliliter of supernatant was removed from each plate, centrifuged at 16,000 g at +4° C. for 10 minutes, and clear cell-free culture media were collected. Cytokine concentrations in culture supernatants, as well as in plasma, were measured by multiplex immunoassay based on Luminex xMAP™ bead array technology using a Bio-Plex 200 fluorescence bead reader (BioRad Laboratories, Hercules, Calif.). […]
Statistical analyses were performed with Microsoft Excel and Analyse-it software (Analyse-it Software Ltd., Leeds, UK). An increase of cytokine expression in immunologic challenges was evaluated using a Student's t-test. […] The statistical significance of the difference in responses to various immunologic challenges was evaluated by using a one-way ANOVA test with Tukey type I error correction. […]

## phytohemagglutinin [PHA]
  IL-2, IL-4 and IL-5 in culture supernatants: detected
